Experimental data published in patent US8129355B2, “Ketone ligands for modulating the expression of exogenous genes via an ecdysone receptor complex” (priority 2002, dated 2012).
Like-named read-outs stand apart in the source and are kept apart here.

Legend:
[1] = molecular target: T1, Bombyx mori EcR (VP16 fusion, switch construct CVBE) with 6XEcRE LacZ reporter (Bombyx mori, UniProt P49881); assay: Z3 assay: β-galactosidase (LacZ) reporter gene fold induction in stably transformed human 293 kidney cells (clone Z3); format: cell-based
T1 construct: expressed in transfected cells; host or cells: Human 293 kidney (HEK-293) cells, retrovirally infected, clone Z3
T1 sequence (P49881 86-606 limits assumed): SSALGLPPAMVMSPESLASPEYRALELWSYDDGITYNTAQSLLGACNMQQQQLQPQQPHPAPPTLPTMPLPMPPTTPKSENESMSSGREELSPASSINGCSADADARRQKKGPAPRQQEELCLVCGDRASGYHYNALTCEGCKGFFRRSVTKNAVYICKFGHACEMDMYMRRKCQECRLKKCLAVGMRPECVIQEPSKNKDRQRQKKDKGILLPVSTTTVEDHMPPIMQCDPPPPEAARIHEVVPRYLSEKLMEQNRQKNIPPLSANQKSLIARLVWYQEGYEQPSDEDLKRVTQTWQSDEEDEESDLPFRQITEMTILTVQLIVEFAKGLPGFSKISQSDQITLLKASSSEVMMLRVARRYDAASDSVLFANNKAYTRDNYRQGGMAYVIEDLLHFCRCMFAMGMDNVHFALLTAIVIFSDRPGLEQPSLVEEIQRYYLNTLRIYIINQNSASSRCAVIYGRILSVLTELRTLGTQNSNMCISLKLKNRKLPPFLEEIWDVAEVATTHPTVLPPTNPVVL
T1 sequence (P19793 1-462 partner): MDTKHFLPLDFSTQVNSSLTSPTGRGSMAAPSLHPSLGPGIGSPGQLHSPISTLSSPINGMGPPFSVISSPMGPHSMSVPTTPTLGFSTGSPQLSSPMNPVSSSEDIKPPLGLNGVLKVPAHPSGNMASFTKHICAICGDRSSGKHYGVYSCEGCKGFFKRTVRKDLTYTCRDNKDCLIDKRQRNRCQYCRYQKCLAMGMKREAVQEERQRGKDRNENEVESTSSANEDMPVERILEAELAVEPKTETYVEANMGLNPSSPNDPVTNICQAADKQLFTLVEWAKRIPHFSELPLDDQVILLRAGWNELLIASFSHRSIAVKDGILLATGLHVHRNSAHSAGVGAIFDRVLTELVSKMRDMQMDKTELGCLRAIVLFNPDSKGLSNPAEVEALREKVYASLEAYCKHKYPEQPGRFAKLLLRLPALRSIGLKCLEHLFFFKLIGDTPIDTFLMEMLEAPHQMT
Outline: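 β-Galactosidase read 48 h after dosing by bioluminescent assay; ligand added at 33 μM with DMSO held at 0.03%. The cells are stable 293 clone Z3, expressing a CMV-driven VP16 fusion of Bombyx mori EcR residues 26-546 plus six EcRE copies upstream of lacZ.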

[2] = molecular target: T2, Gal4 DBD/AaEcR (DEF) with VP16-βRXR-E (Aedes aegypti, UniProt P49880); assay: cell-based; format: cell-based; settings: for Fold Induction Average, AA_3T3 Assay (33 μM): single dose 33 μM, RLU ligand treated / RLU DMSO treated cells; for LC50 (half-maximal ligand concentration for reporter induction): average, dose response 33 μM to 0.01 μM, three-parameter logistic model, read-out: AA_3T3 LC50; for AA_3T3 Rel Max FI: maximum fold induction at any concentration relative to that of GS-E ligand
T2 construct: The wildtype D, E, and F domains from mosquito Aedes aegypti EcR (“AaEcR-DEF”); expressed in transfected cells; host or cells: 3T3 cells, transient transfection (Superfect)
T2 sequence (P28704 286-520 A311G/G315S/G445S/I449V): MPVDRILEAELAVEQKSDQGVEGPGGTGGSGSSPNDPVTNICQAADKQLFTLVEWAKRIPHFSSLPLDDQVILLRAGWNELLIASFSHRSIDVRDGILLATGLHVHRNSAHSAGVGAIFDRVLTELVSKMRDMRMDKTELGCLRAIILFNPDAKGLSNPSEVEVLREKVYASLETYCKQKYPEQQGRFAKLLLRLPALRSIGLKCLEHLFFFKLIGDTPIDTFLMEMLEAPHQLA
T2 sequence (P49880 405-776): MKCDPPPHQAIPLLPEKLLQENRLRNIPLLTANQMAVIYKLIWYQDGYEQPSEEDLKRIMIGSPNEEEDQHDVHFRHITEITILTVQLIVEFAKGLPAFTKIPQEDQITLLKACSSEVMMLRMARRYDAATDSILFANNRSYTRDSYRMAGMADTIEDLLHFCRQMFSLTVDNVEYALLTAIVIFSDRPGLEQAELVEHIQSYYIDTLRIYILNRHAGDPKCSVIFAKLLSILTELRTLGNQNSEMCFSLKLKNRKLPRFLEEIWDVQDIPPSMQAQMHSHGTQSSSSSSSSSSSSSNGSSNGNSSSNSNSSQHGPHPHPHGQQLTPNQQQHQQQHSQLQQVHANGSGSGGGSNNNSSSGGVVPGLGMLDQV
Procedure: 3T3 cells were trypsinized and plated at 2.5×10^3 cells/well on a 96-well plate. After incubation for 24 h at 37° C. under 5% CO2, cells were transfected with the Gal4 DBD/AaEcR (DEF) gene expression cassette and the reporter plasmid, pFRLuc, containing a 5XGAL4 response element and the firefly luciferase gene in serum free media using Superfect (Qiagen). After transfection for 4 h at 37° C., the cells were treated with ligand in serum media. […] Single dose testing was performed at 33 μM.

[3] = average; dose response, three-parameter logistic model; read-out: Z3 LC50
[4] = maximum fold induction at any concentration relative to that of GS-E ligand
[5] = single dose 33 μM; ligand treated / DMSO treated cells
[6] = read-out: Fold Induction Average, Z3 Assay (33 μM)
[7] = read-out: Z3 LC50; average; dose response, three-parameter logistic model

| SMILES | CC50 [1, 3] [µM] | Z3 Rel Max FI [1, 4] | Fold Induction Average, AA_3T3 Assay (33 μM) [2] | LC50 (half-maximal ligand concentration for reporter induction) [2] [µM] | AA_3T3 Rel Max FI [2] | Fold Induction Average, Z3 Assay (33 μM) [1, 5] | fold induction at 33 µM ([1]; single dose 33 μM; ligand treated / DMSO treated cells; read-out: Fold Induction Average, Z3 Assay (33 μM)) | fold induction at 33 µM ([2]; NIH3T3, read-out: Fold Induction Average, AA_3T3 Assay (33 μM)) | fold induction at 33 µM [1, 6] | CC50 [1, 7] [µM] |
| --- | --- | --- | --- | --- | --- | --- | --- | --- | --- | --- |
| COc1cccc(C(=O)NC2(C(=O)c3ccccc3)CCCC2)c1 [Example 141] | > 33 | 0.00 | 1 |  |  |  |  |  |  |  |
| CCc1c(OC)cccc1C(=O)NC1(C(=O)c2cc(C)cc(C)c2)CCCCC1 [Example 143] | 1.81 | 0.85 | 1929 | 2.81 | 0.59 |  |  |  |  |  |
| CCC(CC)(NC(=O)c1cccc(OC)c1C)C(=O)c1ccccc1 [Example 78] | > 33 | 0.06 | 14 | > 33 | 0.00 |  |  |  |  |  |
| COc1cccc(C(=O)NC2(C(=O)c3cc(C)cc(C)c3)CCCCCC2)c1C [Example 71] | 1.61 | 0.69 | 1277 | 8.18 | 0.42 | 952 |  |  |  |  |
| COc1ccccc1C(=O)C(C)(C)NC(=O)c1cccc(OC)c1C [Example 74] |  |  | 4 |  |  | 18 |  |  |  |  |
| CCC(CC)(NC(=O)c1cccc(OC)c1C)C(=O)c1ccc(C)cc1 [Example 77] | 32.2 | 0.04 | 1 |  |  |  |  |  |  |  |
| COc1ccccc1C(=O)C1(NC(=O)c2cccc(OC)c2C)CCCCCC1 [Example 70] | 1.94 | 0.78 | 1878 | 3.21 | 0.48 | 831 |  |  |  |  |
| CCc1c(OC)cccc1C(=O)NC1(C(=O)c2cc(C)cc(C)c2)CCCC1 [Example 144] | 2.15 | 0.86 | 2339 | 2.67 | 0.70 |  |  |  |  |  |
| COc1cccc(C(=O)NC2(C(=O)c3cc(C)cc(C)c3)CCN(C(C)=O)CC2)c1C [Example 149] |  |  |  |  |  |  | 2 | 2 |  |  |
| CCNC(=O)N1CCC(NC(=O)c2cccc(OC)c2C)(C(=O)c2cc(C)cc(C)c2)CC1 [Example 157] |  |  | 1 |  |  | 2 |  |  |  |  |
| COc1cccc(C(=O)NC2(C(=O)c3ccc(C)cc3)CCCC2)c1C [Example 79] | 34.4 | 0.12 | 12 | > 33 | 0.00 |  |  |  |  |  |
| O=C(NC1(C(=O)c2ccccc2)CCCC1)c1ccccc1 [Example 139] | > 33 | 0.00 | 2 |  |  |  |  |  |  |  |
| CCOC(=O)C(=O)N1CCCC(NC(=O)c2cccc(OC)c2C)(C(=O)c2cc(C)cc(C)c2)C1 (racemic) [Example 154] |  |  | 2 |  |  | 7 |  |  |  |  |
| COc1cccc(C(=O)NC(C)(C)C(=O)c2cc(C)cc(C)c2)c1C [Example 75] | ~10 | 0.17 | 161 | > 33 | 0.02 | 312 |  |  |  |  |
| COc1cccc(C(=O)NC2(C(=O)c3cc(F)c(F)c(OC)c3)CCCCC2)c1C [Example 68] |  | 0.70 |  |  |  |  |  |  | 1010 | 2.83 |
| COc1ccc(C(=O)C2(NC(=O)c3cccc(OC)c3C)CCCCC2)c(OC)n1 [Example 64] |  | 0.77 |  |  |  |  |  |  | 1160 | 2.62 |
| CCc1c(OC)cccc1C(=O)NC1(C(=O)c2ccccc2)CCCC1 [Example 21] |  | 0.33 |  |  |  |  |  |  | 305 | ~15 |
| COc1cccc(C(=O)NC2(C(=O)c3ccc(C)cc3)CCCCC2)c1C [Example 15] |  | 0.70 |  |  |  |  |  |  | 921 | 3.01 |
| COc1ccccc1C(=O)C(C)(NC(=O)c1cccc(OC)c1C)c1ccc(F)cc1 (stereo not drawn) [Example 72] |  |  | 3 |  |  | 1 |  |  |  |  |
